# What was measured:
# [1] = system: male mice (C57BL/6) fed high-fat diet; test: Glucose tolerance test (GTT) in high-fat diet mice; type: in vivo; conditions: for fasting glucose level (in words) / glucose control ability in GTT compared with HFD alone (in words): 8 weeks of HFD; for fasting glucose level (in words): 8 h fasting, compared with HFD alone, normal mice or other group; for glucose control ability in GTT compared with HFD alone (in words): glucose 1 g/kg i.p.; for Glucose level: mean
# Description: (§1) Using 8-week-old male mice (C57BL/6) (purchased from CoreTech), anti-diabetic candidate materials were evaluated using a GTT (Glucose Tolerance Test) that is a typical method for diagnosis of diabetes.
# (§2) Mice were housed at a temperature of 22±2° C. and a relative humidity of 55-60% with 12-hr light/12-hr dark cycles. Five animals were allotted to each group, and mice from the same mother were grouped into one group, because male mice tend to fight together.
# (§3) As feed, high-fat diet (60% of calories from fat; Research Diet Inc., New Brunswick, N.J.) and water were fed ad libitum for 10 weeks. Herein, the water fed contained the samples prepared in Examples 1-2 (3), 2-1, 2-4-1, 2-4-2 and 2-5. As a positive control, metformin (M-072, Sigma) (250 mg/kg) was used, and as a control, the samples prepared in Comparative Examples 1-1, 2-3-2, 2-5-1, 2-5-2 and 2-6 were used.
# (§4) For reference, each of the samples prepared in Examples 2-4-1, 2-4-2 and 2-5 was set to the amount to be taken by an adult (60 kg) for 3 days, and the amount was converted into a mouse dose (12-fold/kg, see the US NIH guidance), thereby preparing animal feed. Namely, the amount to be taken by an adult (60 kg) for 3 days is 180-day dose/kg, which corresponds to 15-day dose/kg for mice. Thus, the amount corresponds to 750-day dose/mouse (20 g), because the average weight of mice is about 20 g. Thus, one mouse was allowed to take 1/750 of the prepared sample each day.
# (§5) In addition, each of the samples prepared in Examples 1-2 (3) and 2-1 was set to the amount to be taken by an adult (60 kg) for 2 days, and the amount was converted into a mouse dose (12-fold/kg, see the US NIH guidance), thereby preparing animal feed. Namely, the amount to be taken by an adult (60 kg) for 2 days is 120-day dose/kg, which corresponds to 10-day dose/kg for mice. Thus, the amount corresponds to 500-day dose/mouse (20 g), because the average weight of mice is about 20 g. Thus, one mouse was allowed to take 1/500 of the prepared sample each day.
# At 8 weeks of high-fat diet feeding, a glucose tolerance test (GTT) was performed. For 8 hours for the test, mice were fasted. Then, blood was sampled from the tail vein, and initial blood glucose levels were measured with a blood glucose meter (AUTO-CHEK, Diatech Korea). Then, glucose was administered intraperitoneally to the mice at a concentration of 1 g/kg, and after 30 min, 60 min, 90 min and 120 min, blood was sampled from the mice, followed by measurement of blood glucose levels (each group consisting of five animals).
# (§6) Meanwhile, experimental analysis results were expressed as mean±S.E.M., and the significance between test groups was statistically processed using Student T-TEST, and then the significance was verified at *P<0.05.
# [2] = system: male mice (C57BL/6) fed high-fat diet; test: Body weight and body weight gain of high-fat diet mice; type: in vivo; conditions: for Body weight gain, Mean: HFD mice, metformin 250 mg/kg; for body weight gain compared to high-fat diet (HFD) alone (in words): at 8 weeks after HFD feeding; for Body weight gain: mean
# Description: as §1, §2, §3, §4, §5
# The diet intake and the body weight gain were measured weekly for 8 weeks. The body weight and the diet intake were measured immediately before first drug administration, and then measured at one-week intervals.
# as §6
# plasma [3] = test: Anticoagulant activity: prothrombin time (PT), Sysmex CA-1500; type: biochemical, human; conditions: 20 μl sample + 80 μl plasma, test material g/dL as in label, Asp 7.5 mg/ml, N=3
# Description: (§7) Antithrombotic (anticoagulant) activity was evaluated according to a previously reported method. Each of thromborel S, actin and thrombin, which are reagents for Sysmex CA-1500 for analysis of PT, aPTT and TT, was mounted in Sysmex CA-1500 (Siemens Healthcare, Germany) which is an automated blood coagulation test device. According to the automated procedure of the test device, clotting time (sec) (prothrombin time (PT), activated partial thromboplastin time (aPTT) and thrombin time (TT)) was measured. A sufficient amount of a sample for each of the three analyses was about 400 uL of an 80:20 mixture of plasma and a test substance.
# (§8) The isolated plasma was used in an experiment in a fresh state within 5-6 hours.
# (§9) In this experiment, for the relative comparison of the measured clotting time (sec) (PT, aPTT and TT) between test groups, clotting time prolongation (%) relative to triple distilled water (purified water) that is a normal control test sample was statistically analyzed. For statistical analysis, the […] anticoagulant activities of test materials were comparatively analyzed using SPSS IBM version 21.0 by one-way ANOVA at p<0.05, and significance comparison between groups was performed by Duncan's test.
# The aspirin solution was immediately used at room temperature in a light-shielded state or was cold-stored.
# As a control, aspirin was used, and as a vehicle control, triple distilled water (purified water) was used instead of the sample.
# plasma [4] = test: Anticoagulant activity: activated partial thromboplastin time (aPTT), Sysmex CA-1500; type: biochemical, human; conditions: Table 4; 20 μl sample + 80 μl plasma; test material g/dL as in label; Asp 7.5 mg/ml; N=3
# Description: as §7, §8, §9
# The aspirin solution was immediately used at room temperature in a light-shielded state or was cold-stored. […]
# [5] = system: male mice (C57BL/6) fed high-fat diet; test: Histological examination of liver, WAT, BAT and kidney; type: in vivo; conditions: HFD mice, 10 weeks
# Description: as §3
# (§10) At 10 weeks of high-fat diet feeding, the mice were sacrificed by cervical dislocation to obtain serum. For histological examination, the liver, white adipose tissue (WAT), brown adipose tissue (BAT) and kidney were fixed with formalin (50-00-0, Junsei, Japan), and the remaining organs were stored at −70° C. The blood sampled from the heart was coagulated to obtain serum which was then stored at −70° C.
# For histological examination, the major organs and adipose were fixed in 4% neutral buffered formalin and embedded in paraffin blocks, and the paraffin blocks were sectioned at 5 μm and stained with hymatoxylin (MHS-16, Sigma-Aldrich, USA) and eosin (HT110116, Sigma-Aldrich). The prepared tissue samples were mounted in glycerin gel mounting media (SP15-100, Fisher Scientific, USA), covered with cover glass, and observed with a microscope (IX71, OLYMPUS, USA). The tissue was imaged with the camera equipped in the microscope.
# [6] = system: male mice (C57BL/6) fed high-fat diet; test: Blood biochemistry (triglyceride, AST, ALT) in high-fat diet mice; type: in vivo
# Description: as §3, §4, §5
# In blood biochemistry, insulin (AKRIN-011T, Shibayagi, Japan), glucose (AM202, Asan Pharmaceutical Co., Ltd., Korea), triglyceride (AM157, Asan Pharmaceutical Co., Ltd.), total cholesterol (AM202, Asan Pharmaceutical Co., Ltd.), AST and ALT (Asan Pharmaceutical Co., Ltd.) were analyzed using enzymatic assay kits.
# as §10, §6
# [7] = 8 weeks, sample in drinking water (1/500 per day), Tables 6, 9, 12
# [8] = HFD mice serum, compared with reference diet, HFD or other group
smiles,measurement,setting,value
"NCCS(=O)(=O)O [DT19, taurine, reference compound]",fasting glucose level (in words),[1],"lower than that of the mice administered with high-fat diet (HFD), and were similar to the blood glucose levels of normal mice"
same,glucose control ability in GTT compared with HFD alone (in words),[1],significantly higher than that of the group administered with HFD alone
same,"Body weight gain, Mean",[2]; [7],9.52 g
same,body weight gain compared to high-fat diet (HFD) alone (in words),[2],significant reduction in body weight gain
"CN(C)C(=N)N=C(N)N [Metformin, metformin]","Body weight gain, Mean","[2]; 1 week, Table 15 experiment, sample in drinking water (1/750 per day)",2.445 g
same,Body weight gain,[2]; 2 weeks,2.503 g
same,Body weight gain,[2]; 3 weeks,4.020 g
same,"Body weight gain, Mean","[2]; 4 weeks, Table 15 experiment, sample in drinking water (1/750 per day)",4.600 g
same,Body weight gain,[2]; 4 weeks,4.600 g
same,Body weight gain,[2]; 5 weeks,6.093 g
same,Body weight gain,[2]; 6 weeks,7.250 g
same,Body weight gain,[2]; 7 weeks,6.263 g
same,"Body weight gain, Mean","[2]; 8 weeks, Table 15 experiment, sample in drinking water (1/750 per day)",8.238 g
"CC(=O)Oc1ccccc1C(=O)O [Asp, aspirin]","PT clotting time prolongation relative to purified water, Mean",plasma [3]; Table 2,9.90%
"O=C(CO)[C@@H](O)[C@H](O)[C@H](O)CO [Fruc 6.2, fructose]","aPTT clotting time prolongation relative to purified water, Mean",plasma [4],−0.20%
same,"PT clotting time prolongation relative to purified water, Mean",plasma [3]; Table 4,0.54%
"O=C(CO)[C@@H](O)[C@H](O)[C@H](O)CO [Fruc 12.4, fructose]","aPTT clotting time prolongation relative to purified water, Mean",plasma [4],0.58%
same,"PT clotting time prolongation relative to purified water, Mean",plasma [3]; Table 4,0.54%
NCCS(=O)(=O)O [DT15],accumulation of adipose in brown adipose tissue (histology),[5],decreased
same,development of fatty liver (histology),[5],decreased
same,nephrotoxicity (histology),[5]; kidney,did not appear
same,fasting glucose level (in words),[1],"lower than that of the mice administered with high-fat diet (HFD), and were similar to the blood glucose levels of normal mice"
same,glucose control ability in GTT compared with HFD alone (in words),[1],significantly higher than that of the group administered with HFD alone
same,Glucose level,[1]; GTT 0 min (fasting),121.25 mg/dL
same,Glucose level,[1]; GTT 30 min,335.25 mg/dL
same,Glucose level,[1]; GTT 60 min,295.25 mg/dL
same,Glucose level,[1]; GTT 90 min,193.75 mg/dL
same,Glucose level,[1]; GTT 120 min,126.25 mg/dL
same,"Body weight gain, Mean","[2]; 2 weeks, sample in drinking water (1/500 per day), Tables 6, 9, 12",4.40 g
same,"Body weight gain, Mean",[2]; [7],11.58 g
same,body weight gain compared to high-fat diet (HFD) alone (in words),[2],significant reduction in body weight gain
same,triglyceride level (in words),"[6]; HFD mice serum, compared with normal/reference diet or other group",significantly lower than that of DT19
same,ALT level (in words),[6]; [8],lower than those of DT19
same,AST level (in words),[6]; [8],lower than those of DT19
same,ALT level,"[6]; blood, mean",14.02 IU/L
same,AST level,"[6]; blood, mean",98.96 IU/L
same,Triglyceride level,"[6]; blood, mean",53.62 mg/dL

# Source: US9877938B2 (priority 2014, dated 2018)
